Results: patent publication US4188485A, “1-[(10,11-Dihydro-5H-dibenzo[a,d]-cyclohepten-5-yl)methyl]-4-substituted piperidines and related compounds” (G. D. Searle & Co., priority 1978, dated 1980)

Experiments:
dopamine receptors [1] = target: dopamine receptors (Bos taurus, UniProt P20288); test: biochemical; type: binding; settings: 1.6 nM ^3 H-haloperidol, calf caudate membrane homogenate, 37° C., 10 minutes; non-specific binding with 10^-4 M dopamine
dopamine receptors [2] = test: biochemical; type: binding; settings: ^3 H-Haloperidol and ^3 H-Spiroperidol versus ^3 H-dopamine sites; compared with clozapine and chloropromazine
dopamine receptors [3] = test: Receptor Binding Assay, displacement of ^3 H-dopamine binding to calf caudate membranes; settings: for IC50: read-out: ^3 H-Dopamine (IC50), calf caudate membrane homogenate, 37° C., 10 minutes, non-specific binding with 10^-5 M (+)-Butaclamol
dopamine receptors [4] = test: Receptor Binding Assay, displacement of ^3 H-Spiroperidol binding to calf caudate membranes; settings: read-out: ^3 H-Spiroperidol (IC50); 0.15 nM ^3 H-Spiroperidol, calf caudate membrane homogenate, 37° C., 20 minutes; non-specific binding with 10^-5 M (+)-Butaclamol

Chain of dopamine receptors (Bos taurus, UniProt P20288) (P20288 whole entry): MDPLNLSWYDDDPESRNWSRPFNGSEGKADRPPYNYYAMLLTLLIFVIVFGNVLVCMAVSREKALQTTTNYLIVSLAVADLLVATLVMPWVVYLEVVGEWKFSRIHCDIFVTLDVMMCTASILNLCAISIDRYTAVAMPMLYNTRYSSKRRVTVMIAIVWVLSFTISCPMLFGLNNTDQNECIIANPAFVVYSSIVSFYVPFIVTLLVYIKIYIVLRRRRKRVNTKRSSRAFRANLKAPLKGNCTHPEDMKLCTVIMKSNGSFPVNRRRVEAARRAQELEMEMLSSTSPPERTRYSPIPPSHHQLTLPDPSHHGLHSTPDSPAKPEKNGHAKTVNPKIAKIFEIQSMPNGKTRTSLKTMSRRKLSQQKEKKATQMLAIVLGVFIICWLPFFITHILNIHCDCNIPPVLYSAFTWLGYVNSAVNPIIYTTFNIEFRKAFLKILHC

## CC(C)(C)C1(O)CCN(CC2c3ccccc3CCc3ccccc32)CC1 [Compound A]
Dopamine receptors [1]
  IC50: 2.4 nM
Dopamine receptors [2]
  antagonist ratios: comparable to clozapine and chloropromazine
Dopamine receptors [3]
  IC50: 15000 nM
Dopamine receptors [4]
  IC50: 860 nM

## CC(C)(C)C1(O)CCN(CC2c3ccccc3CCc3cc(Cl)ccc32)CC1 (stereo not shown) [Compound B]
Dopamine receptors [1]
  IC50: 7.5 nM
Dopamine receptors [2]
  antagonist ratios: comparable to clozapine and chloropromazine
Dopamine receptors [3]
  IC50: 880 nM
Dopamine receptors [4]
  IC50: 270 nM

## CC(C)(C)C1(O)CCN(CC2c3ccccc3CCc3ccc(Br)cc32)CC1.Cl (stereo not shown) [Compound C, 4-tert-butyl-1-[(3-bromo-10,11-dihydro-5H-dibenzo[a,d]cyclohepten-5-yl)methyl]-4-piperidinol hydrochloride]
Dopamine receptors [1]
  IC50: 280 nM
Dopamine receptors [2]
  antagonist ratios: comparable to clozapine and chloropromazine
Dopamine receptors [3]
  IC50: 1700 nM
Dopamine receptors [4]
  IC50: 220 nM

## CC(C)(C)C1(O)CCN(CC2c3ccccc3C=Cc3ccccc32)CC1.Cl [Compound D, 4-tert-butyl-1-[(5H-dibenzo[a,d]cyclohepten-5yl)methyl]-4-piperidinol, hydrochloride]
Dopamine receptors [1]
  IC50: 37 nM
Dopamine receptors [2]
  antagonist ratios: comparable to clozapine and chloropromazine
Dopamine receptors [3]
  IC50: 7200 nM
Dopamine receptors [4]
  IC50: 1500 nM

## Cl.Cl.NC1CCN(CC2c3ccccc3CCc3ccccc32)CC1 [Compound E, 1-[(10,11-dihydro-5H-dibenzo[a,d]cyclohepten-5-yl)methyl]-4-piperidinamine, dihydrochloride]
Dopamine receptors [1]
  IC50: 2500 nM
Dopamine receptors [2]
  antagonist ratios: comparable to clozapine and chloropromazine
Dopamine receptors [3]; at 10^-4, calf caudate membrane homogenate, 37° C., 10 minutes, 100 µM
  ^3 H-Dopamine, % at 10^-4: 27%
Dopamine receptors [4]
  IC50: 30000 nM

## CC(C)(C)C1(O)CCN(CC2c3ccccc3Oc3ccccc32)CC1.Cl [Compound F, 4-tert-butyl-1-(xanthen-9-ylmethyl)-4-piperidinol, hydrochloride]
Dopamine receptors [1]
  IC50: 310 nM
Dopamine receptors [2]
  antagonist ratios: comparable to clozapine and chloropromazine
Dopamine receptors [3]
  IC50: 15000 nM
Dopamine receptors [4]
  IC50: 5900 nM

## CC(C)(C)C1(O)CCN(CC2c3ccccc3Sc3ccccc32)CC1.Cl [Compound G, 4-tert-butyl-1-(thioxanthen-9-ylmethyl)-4-piperidinol, hydrochloride]
Dopamine receptors [1]
  IC50: 290 nM
Dopamine receptors [2]
  antagonist ratios: comparable to clozapine and chloropromazine
Dopamine receptors [3]
  IC50: 4500 nM
Dopamine receptors [4]
  IC50: 910 nM

## CC(C)(C)C1(O)CCN(CC(c2ccccc2)c2ccccc2)CC1 [Compound H, 4-tert-butyl-1-(2,2-diphenylethyl)-4-piperidinol]
Dopamine receptors [1]
  IC50: 160 nM
Dopamine receptors [2]
  antagonist ratios: comparable to clozapine and chloropromazine
Dopamine receptors [3]
  IC50: 60000 nM
Dopamine receptors [4]
  IC50: 3600 nM

## O=C1CCN(CC(c2ccccc2)c2ccccc2)CC1C1(O)CCN(CC(c2ccccc2)c2ccccc2)CC1 (stereo not shown) [Compound I, 1-(2,2-diphenylethyl)-3-[1-(2,2-diphenylethyl)-4-hydroxypiperidin-4-yl]-4-piperidinone]
Dopamine receptors [1]
  IC50: 500 nM
Dopamine receptors [2]
  antagonist ratios: comparable to clozapine and chloropromazine
Dopamine receptors [3]
  IC50: 27000 nM

## OC1CCN(CC(c2ccccc2)c2ccccc2)CC1C1(O)CCN(CC(c2ccccc2)c2ccccc2)CC1 (stereo not shown) [Compound J, 1-(2,2-diphenylethyl)-3-[1-(2,2-phenylethyl)-4-hydroxypiperidin-4-yl]-4-piperidinol]
Dopamine receptors [1]
  IC50: 90 nM
Dopamine receptors [2]
  antagonist ratios: comparable to clozapine and chloropromazine
Dopamine receptors [3]
  IC50: 25000 nM

## O=C1CCN(CC(c2ccc(Cl)cc2)c2ccc(Cl)cc2)CC1C1(O)CCN(CC(c2ccc(Cl)cc2)c2ccc(Cl)cc2)CC1 (stereo not shown) [Compound K, 1-[2,2-bis(p-chlorophenyl)ethyl]-3-{1-[2,2-bis(p-chlorophenyl)ethyl]-4-hydroxypiperidin-4-yl}-4-piperidinone]
Dopamine receptors [1]
  IC50: 10000 nM
Dopamine receptors [2]
  antagonist ratios: comparable to clozapine and chloropromazine
